Laboratory results as given in article PMC9203748, “Metabolism and antioxidant activity of SlGSTD1 in Spodoptera litura as a detoxification enzyme to pyrethroids” (Scientific Reports, 2022).
Like-named read-outs stand apart in the source and are kept apart here.

Key:
SlGSTD1 [1] = biological target: T1, SlGSTD1 (Spodoptera litura, UniProt A0A9J7IUS4); assay: GSH conjugation, A340, Michaelis-Menten fit; assay type: biochemical; details: GSH 30 μL of 100 μmol mL^−1 in about 1.1 mL; PBS 0.1 mol L^−1 pH 7.0
T1 construct: gene LOC111355915
T1 sequence (A0A9J7IUS4 1-221): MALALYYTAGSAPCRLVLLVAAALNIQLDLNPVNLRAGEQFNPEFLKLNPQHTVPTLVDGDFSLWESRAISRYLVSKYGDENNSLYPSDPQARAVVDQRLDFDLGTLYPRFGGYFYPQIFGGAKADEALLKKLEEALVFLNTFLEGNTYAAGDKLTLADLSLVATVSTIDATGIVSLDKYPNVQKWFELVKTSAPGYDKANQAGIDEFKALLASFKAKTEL

SlGSTD1 [2] = biological target: T1, SlGSTD1; assay: inhibition of GSH-CDNB conjugation, A340; assay type: biochemical

| SMILES | IC50 (SlGSTD1 [2]) [µM] | further results |
| --- | --- | --- |
| O=[N+]([O-])c1ccc(Cl)c([N+](=O)[O-])c1 [CDNB] |  | Km (SlGSTD1 [1]): 1680 ± 110 µM |
| CC(C)C(C(=O)OC(C#N)c1cccc(Oc2ccccc2)c1)c1ccc(Cl)cc1 (centres unmarked) [fenvalerate] | 21.6 ± 3.2 |  |
| CC1(C)C(/C=C(\Cl)C(F)(F)F)C1C(=O)OC(C#N)c1cccc(Oc2ccccc2)c1 (centres unmarked) [cyhalothrin] | 124 ± 10.3 |  |
| CCOP(=S)(OCC)Oc1nc(Cl)c(Cl)cc1Cl [chlorpyrifos] | 170 ± 15.2 |  |
| CCOC(=O)/C=C\C(=O)OCC [DEM, reference compound] |  | IC50 (SlGSTD1 [2]; read-out: IC50): 2.1 ± 0.3 µM |
